Values after ≈ are worked out from the molar mass of the structure shown. Where two headings read alike, the source gives them in different places. Marks after values point to notes of the source that are not given here.
Experiments:
B. cenocepacia = assay: MIC testing of CF isolates; type: cell-based, Burkholderia cenocepacia; details: strain AU197
[1] = tested on: B. cepcacia complex (not further speciated); assay: microbe, parasite or virus in culture; type: cell-based, Burkholderia cepacia complex; details: Burkholderia cepacia
S. aureus ATCC 29213 = assay: MIC control strain; details: QC organism, Example 13
S. aureus = assay: Broth microdilution MIC (Example 11); type: cell-based, Staphylococcus aureus
P. aeruginosa [2] = assay: Checkerboard FIC/FICI assay; type: cell-based, Pseudomonas aeruginosa; details: during FIC testing
Enterobacteriaceae [3] = assay: Broth microdilution MIC (Example 11); type: cell-based, E. coli, K. pneumoniae, Enterobacter cloacae
Escherichia coli = assay: Broth microdilution MIC (Example 12); type: cell-based
[4] = tested on: P. aeruginosa and A. baumannii; details: P. aeruginosa (MMX 103), QC; cited from earlier work
Enterobacteriaceae [5] = details: E. coli (MMX 102), QC; cited from earlier work
E. coli ATCC 25922 = details: cited from earlier work
[6] = tested on: Gram-negative organisms (P. aeruginosa, E. coli, A. baumannii, H. influenzae); assay: Broth microdilution MIC with pulmonary surfactant (Survanta); type: cell-based; details: evaluated organisms, 1-10% Survanta
P. aeruginosa [7] = details: control strain ATCC 27853; cited from earlier work
in vivo [8] = assay: in vivo; parameters: species or system F344 rats; details: both sexes; for concentration at 30 hr: sac time 30 hr
Protocol: Detailed gross necropsies were performed on all animals (found dead, moribund, or scheduled necropsy) and consisted of a complete external and internal examination including body orifices and cranial, thoracic, and abdominal organs and tissues. All gross findings will be recorded in descriptive terms. […] Lungs collected and weighed.

in vivo [9] = assay: in vivo; parameters: species or system rat; details: for half-life / concentration at 24 hours / Kp: in vivo
Source text: . Without being bound by any particular theory, it is believed BisEDT's low solubility provides slow dissolution and long exposure on lung surface fluids with limited systemic exposure via diffusion through lung epithelium. The lung appears to act as a depot for slow systemic exposure with about 10× lower systemic levels than seen in the lung. The terminal phase of the IV data appears to show slow elimination after initial tissue distribution (FIG. 36).
. The NOAEL was established through clinical observation during and after treatment, gross necropsy, lung lavage analysis, clinical chemistry, and hematology results. […].

[10] = tested on: Gram-negative organisms (P. aeruginosa, E. coli, A. baumannii, H. influenzae); details: cited from earlier work
[11] = tested on: MucilAir fully differentiated human airway epithelium
[12] = tested on: Gram-positive organisms (S. aureus, S. pneumoniae); details: cited from earlier work
[13] = rat, 24 hours after single inhalation dose
[14] = rat, 4 days (96 hrs) after single dose

## CC(S)C(C)S.[Bi] (stereo not shown) [BisBDT, bismuth-2,3-butanedithiol]
B. cenocepacia
  MIC: 4 µg/mL
[1]; strain BC 9
  MIC: 0.5 µg/mL
[1]; strain PC 213
  MIC: 1 µg/mL
S. aureus ATCC 29213
  MIC 24 hr: 1^a
S. aureus; S. aureus MMX 5373, MRSA, Lev^R Cip^R CC^R Ery^R Ox^R
  MIC: ≤0.06 µg/mL
S. aureus; S. aureus MMX 6311, MRSA, Lev^R Cip^R CC^R Ery^R Ox^R
  MIC: ≤0.06 µg/mL
S. aureus; S. aureus MMX 9204, MRSA, Lev^R Cip^R Ery^R Ox^R
  MIC: ≤0.06 µg/mL
S. aureus; S. aureus MMX 9205, MRSA, Lev^R Cip^R CC^R Ery^R Ox^R
  MIC: ≤0.06 µg/mL
S. aureus; Staphylococcus aureus, ATCC 29213 / MSSA
  MIC: ≤ 0.06 µg/mL

## C[C@@H](O)[C@H]1C(=O)N2C(C(=O)O)=C(S[C@@H]3CN[C@H](C(=O)N(C)C)C3)[C@H](C)[C@H]12 [MEM]
P. aeruginosa [2]; isolate 103 (ATCC 25922), each agent tested alone for QC, one replicate
  MIC: 1 µg/mL
P. aeruginosa [2]; isolate 6322
  MIC: 16 µg/mL
P. aeruginosa [2]; isolate 6977
  MIC: 8 µg/mL
P. aeruginosa [2]; isolate 7745
  MIC: 16 µg/mL
P. aeruginosa [2]; isolate 8798
  MIC: 32 µg/mL
Enterobacteriaceae [3]; E. cloacae (MMX 5981), NDM-1, LVX-R, MEM-R, CAZ-R, GEN-R
  MIC: >64 µg/mL
Enterobacteriaceae [3]; E. coli (MMX 102), QC
  MIC: 0.03 µg/mL (≈ 0.0782 µM)
Enterobacteriaceae [3]; E. coli (MMX 5980), NDM-1, LVX-R, MEM-R, CAZ-R, GEN-R
  MIC: 32 µg/mL (≈ 83.4 µM)
Enterobacteriaceae [3]; E. coli (MMX 8423), ESBL, LVX-R, CAZ-R, GEN-R
  MIC: 0.03 µg/mL (≈ 0.0782 µM)
Enterobacteriaceae [3]; E. coli (MMX 8424), ESBL, CAZ-R
  MIC: 0.03 µg/mL (≈ 0.0782 µM)
Enterobacteriaceae [3]; E. coli (MMX 8425), ESBL, LVX-R, CAZ-R, GEN-R
  MIC: 0.015 µg/mL (≈ 0.0391 µM)
Enterobacteriaceae [3]; K. pneumoniae (MMX 4622), KPC-2, MEM-R, CAZ-R
  MIC: >64 µg/mL
Enterobacteriaceae [3]; K. pneumoniae (MMX 4623), KPC-2, MEM-R, CAZ-R, GEN-R
  MIC: >64 µg/mL
Enterobacteriaceae [3]; K. pneumoniae (MMX 4653), KPC-3, LVX-R, MEM-R, CAZ-R
  MIC: >64 µg/mL
Enterobacteriaceae [3]; K. pneumoniae (MMX 4683), KPC-2, LVX-R, MEM-R, CAZ-R
  MIC: 32 µg/mL (≈ 83.4 µM)
Enterobacteriaceae [3]; K. pneumoniae (MMX 4684), ESBL, MEM-R
  MIC: 8 µg/mL (≈ 20.9 µM)
Enterobacteriaceae [3]; K. pneumoniae (MMX 4685), ESBL, LVX-R, MEM-R, CAZ-R
  MIC: 4 µg/mL (≈ 10.4 µM)
Enterobacteriaceae [3]; K. pneumoniae (MMX 4694), KPC-3, LVX-R, MEM-R, CAZ-R
  MIC: 32 µg/mL (≈ 83.4 µM)
Enterobacteriaceae [3]; K. pneumoniae (MMX 5979), NDM-1, LVX-R, MEM-R, CAZ-R, GEN-R
  MIC: >64 µg/mL
Escherichia coli; E. coli ATCC 25922, ATCC QC organism (Table 102)
  MIC: ≤0.008 µg/mL
Escherichia coli; E. coli ATCC 35218, ATCC QC organism (Table 102)
  MIC: ≤0.008 µg/mL
Escherichia coli; E. coli ATCC 35218, ESBL
  MIC: ≤0.008 µg/mL
Escherichia coli; E. coli ATCC BAA-2471, NDM
  MIC: >8 µg/mL
Escherichia coli; E. coli CDC 114, ESBL/KPC
  MIC: 2 µg/mL (≈ 5.22 µM)
Escherichia coli; E. coli CDC 118, ESBL/NDM
  MIC: 0.06 µg/mL (≈ 0.156 µM)
Escherichia coli; E. coli CDC 435, NDM
  MIC: >8 µg/mL
Escherichia coli; E. coli CDC 451, KPC
  MIC: 1 µg/mL (≈ 2.61 µM)
Escherichia coli; E. coli CDC 503, ESBL/NDM
  MIC: 8 µg/mL (≈ 20.9 µM)
Escherichia coli; E. coli MMX 5745, KPC
  MIC: 2 µg/mL (≈ 5.22 µM)
Escherichia coli; E. coli MMX 5755, ESBL
  MIC: 0.015 µg/mL (≈ 0.0391 µM)
Escherichia coli; E. coli MMX 5756, ESBL
  MIC: ≤0.008 µg/mL
Escherichia coli; E. coli MMX 5758, ESBL
  MIC: ≤0.008 µg/mL
[4]
  CLSI Quality Control Range (MIC): (0.25-1)
Enterobacteriaceae [5]
  CLSI Quality Control Range (MIC): (0.008-0.06) μg/mL

## C1C[S][Bi]([S]CC[S][Bi]2[S]CC[S]2)[S]1 [BisEDT, Bismuth-1,2-ethanedithiol]
E. coli ATCC 25922; E. coli ATCC 25922, established QC range, 24 hr
  QC Range 24 hr: 0.5-4
E. coli ATCC 25922; control strain ATCC 25922
  Expected MIC: goal (acceptable range): 1 µg/mL
[6]
  effect of Survanta addition on MIC values: largely unaffected
P. aeruginosa [7]
  Expected MIC: goal (acceptable range): 1 to 2 µg/mL
In vivo [8]; F344, in vivo, rat, inhalation, dose 47 μg/kg, read-out: Mean BisEDT Conc, lung at sacrifice
  concentration at 30 hr: 4.8 ng/g
In vivo [8]; F344, in vivo, rat, inhalation, dose 124 μg/kg, read-out: Mean BisEDT Conc, lung at sacrifice
  concentration at 30 hr: 5.9 ng/g
In vivo [8]; F344, in vivo, rat, inhalation, dose 400 μg/kg, read-out: Mean BisEDT Conc, lung at sacrifice
  concentration at 30 hr: 12.1 ng/g
In vivo [8]; F344, in vivo, rat, inhalation, dose 3000 μg/kg, sac time 24 hr, read-out: Mean BisEDT Conc, lung at sacrifice
  concentration at 24 hr: 82.3 ng/g
In vivo [8]; F344, rat, in vivo, rats, 24 hours after dosing, read-out: lung tissue drug levels higher than blood levels
  Kp at 24 hours: 4 to 5
In vivo [9]; 100 μg/kg, rat, after IV dosing, read-out: half-life of lung levels (converted)
  half-life: ~24 h
In vivo [9]; inhaled or intranasal, 100 μg/kg, rat, after inhalation dosing, read-out: half-life in lung tissue (converted)
  half-life: ~96 h
In vivo [9]; average rat, correlated from lung tissue level, read-out: concentration in lung epithelial lining fluid
  concentration at 24 hours: 150 to 175 µg/mL
In vivo [9]; rat, longer-term single-dose and repeat-dose studies, read-out: half-life in lung tissue (converted)
  half-life: 96 to 168 h
In vivo [9]; rat
  lung surface fluid concentrations higher than total lung tissue concentrations: approximately 30 fold
In vivo [9]; rat, 100 μg/kg inhalation and IV and 250 μg/kg oral
  tolerability: tolerated
In vivo [9]; [13]
  equivalent concentration in lung fluid: 123 µg/mL
  lung tissue concentration: 4,093 ng/g
In vivo [9]; [14]
  equivalent concentration in lung fluid: 78 µg/mL
  lung tissue concentration: 2,600 ng/g
In vivo [9]; rat, IV
  lung levels after IV dosing vs inhalation group: < 5%
In vivo [9]; rat, rat, repeat dose TK, read-out: lung tissue exposure (AUC) greater than blood exposure
  Kp: 26
In vivo [9]; rat, rat, read-out: lung fluid exposure (AUC) greater than systemic exposure
  Kp: > 700
In vivo [9]; rat, rats, doses near the NOAEL, 24 hours after dosing, read-out: lung tissue level (total wet lung tissue)
  concentration at 24 hours: ~5000 ng/g
[10]; H. Influenzae ATCC 49247
  CLSI acceptable MIC QC range: (0.015-0.06) μg/mL
[10]; P. aeruginosa ATCC 27853
  CLSI acceptable MIC QC range: 0.5 to 4 µg/mL
[11]; BisEDT in solution, all tested concentrations and time points
  Morphology after exposure: No morphology changes were observed
[11]; solid in dextran, 3.33 μg/cm^2, 24 and 48 h
  Morphology after exposure: Cells were rounded and opaque at the periphery of inserts
[11]; solid in dextran, 0.033 and 0.33 μg/cm^2
  Morphology after exposure: No morphological modifications were observed
[11]; solid, 1 μg/cm^2, 1 hour and 8 hour
  Morphology after exposure: no important morphological changes were observed
[11]; solid, 1 μg/cm^2, 24 h
  Morphology after exposure: the epithelial cells on 2 inserts out of 3 were dead
[11]; solid, 1 μg/cm^2, 48 h
  Morphology after exposure: the epithelial cells on all 3 inserts were dead
[12]; S. aureus ATCC 29213
  CLSI acceptable MIC QC range: (0.12-1) μg/mL
[12]; S. pneumoniae ATCC 49619
  CLSI acceptable MIC QC range: (0.12-1) μg/mL
